In patent US6867299B2, “Oxamide IMPDH inhibitors” (Hoffmann-La Roche Inc., priority 2000, dated 2005):
Counter-ions that a name gives are not always drawn.

Target: IMPDH (human type II) (Homo sapiens, UniProt P12268)
Experiment: IMPDH inhibitor assay, spectrophotometric (NADH formation at 340 nm)
Format: biochemical
Conditions: 37° C., pH8.0, 2.5% DMSO, 10 concentrations of inhibitor
Method: IMPDH activity can be assayed using an adaptation of the method reported by Carr [S. Carr et al., J. Biol. Chem. 268, p.27286 (1993)], the disclosure of which is herein incorporated by reference. IMPDH activity was measured spectrophotometrically, by monitoring the increase in absorbance at 340 nm due to the formation of NADH (ε340 is 6220 M−1 cm−1) from the reduction of NAD. The IMPDH reaction mixture contained 0.1M Tris pH8.0, 0.1M KCl, 1 mM DTT, 3 mM EDTA, […]. The reaction was initiated by the addition of IMPDH (human type II) to a final concentration in the assay of between 1 nM and 5 nM with respect to the IMPDH tetramer. The initial rate is measured by following the linear increase in absorbance at 340 nm at 37° C. for 45 minutes. The reading was conducted using a Spectromax 190 (Molecular Devices) spectrophotometer in a 96 well plate format with a final reaction volume of 200 μl.
For inhibitor assay analysis, the compound is dissolved in DMSO to a final concentration of 10 mM and added to the initial reaction mixture as 5 μl to give final DMSO concentration of 2.5%. The enzyme reaction is initiated by the addition of IMPDH and the initial rates measured as above. IC50 determinations are made by measuring the initial rates in the presence of 10 concentrations of inhibitor and fitting the data using the 4 parameter curve fit from the Softmax pro software (Molecular Devices).

SMILES	IC50
COc1cc(NC(=O)C(=O)NC(C)(C)Cc2ccccc2)ccc1-c1cnco1 [N-(1,1-Dimethyl-2-phenylethyl)-N′-[3-methoxy-4-(5-oxazolyl)phenyl]oxalamide]	15 nM
C#CC(C)(C)NC(=O)C(=O)Nc1ccc(-c2cnco2)c(OC)c1 [N-(1,1-Dimethylpropargyl)-N′-[3-methoxy-4-(5-oxazolyl)phenyl]oxalamide]	48 nM
CCC(C)(C)NC(=O)C(=O)Nc1ccc(-c2cnco2)c(OC)c1 [N-(1,1-Dimethylpropyl)-N′-[3-methoxy-4-(5-oxazolyl)phenyl]oxalamide]	31 nM
COc1cc(NC(=O)C(=O)NC(C)(C)CN(C)C)ccc1-c1cnco1 [N-(2-Dimethylamino-1,1-dimethylethyl)-N′-[3-methoxy-4-(5-oxazolyl)phenyl]oxalamide hydrochloride (1:1)]	170 nM
COc1cc(NC(=O)C(=O)NC(C)(C)CO)ccc1-c1cnco1 [N-(2-Hydroxy-1,1-dimethylethyl)-N′-[3-methoxy-4-(5-oxazolyl)phenyl]oxalamide]	72 nM
COc1cc(NC(=O)C(=O)NC(C)(C)CC(C)(C)C)ccc1-c1cnco1 [N-[3-Methoxy-4-(5-oxazolyl)phenyl]-N′-(1,1,3,3-tetramethyl-butyl)oxalamide]	34 nM
CNC(=O)C(C)(C)NC(=O)C(=O)Nc1ccc(-c2cnco2)c(OC)c1 [N-[3-Methoxy-4-(5-oxazolyl)phenyl]-N′-[1-methyl-1-(methylcarbamoyl)ethyl]oxalamide]	199 nM
COc1cc(NC(=O)C(=O)Nc2cccc(CNS(=O)(=O)c3ccccc3)c2)ccc1-c1cnco1 [N-[3-[(Benzenesulfonamido)methyl]phenyl]-N′-[3-methoxy-4-(5-oxazolyl)phenyl]oxalamide]	125 nM
CC(C)(C)NC(=O)C(=O)Nc1ccc(-c2cnco2)c(Cl)c1 [N-tert-Butyl-N′-[3-chloro-4-(5-oxazolyl)phenyl]oxalamide]	169 nM
COc1cc(NC(=O)C(=O)Nc2cccc(CNC(=O)Oc3ccccc3)c2)ccc1-c1cnco1 [Phenyl [3-[[[4-(5-oxazolyl)anilino]oxalyl]amino]benzyl]carbamate]	11 nM
COc1cc(NC(=O)C(=O)Nc2cccc(CNC(=O)O[C@H]3CCOC3)c2)ccc1-c1cnco1 [[3-[[[3-Methoxy-4-(5-oxazolyl)anilino]oxalyl]amino]benzyl]carbamic acid tetrahydro-3(S)-furyl ester]	44 nM
COc1cc(NC(=O)C(=O)NC(C)(C)CNC(=O)OC(C)(C)C)ccc1-c1cnco1 [tert-Butyl [2-[[[3-methoxy-4-(5-oxazolyl)anilino]oxalyl]amino]-2-methylpropyl]carbamate]	75 nM

Further compounds by falling IC50, results first:

IC50	SMILES
460 nM	COc1cc(NC(=O)C(=O)NC(C)(C)C)ccc1-c1cocn1 [N-tert-Butyl-N′-[3-methoxy-4-(4-oxazolyl)phenyl]oxalamide]
277 nM	COc1cc(NC(=O)C(=O)Nc2cccnc2)ccc1-c1cnco1 [N-[3-Methoxy-4-(5-oxazolyl)phenyl]-N′-(3-pyridyl)oxalamide]
233 nM	COc1cc(NC(=O)C(=O)Nc2cccc(CN)c2)ccc1-c1cnco1 [N-[3-(Aminomethyl)phenyl]-N′-[3-methoxy-4-(5-oxazolyl)phenyl]oxalamide trifluoroacetate (1:1)]
121 nM	COC(=O)NCc1cccc(NC(=O)C(=O)Nc2ccc(-c3cnco3)c(OC)c2)c1 [Methyl [3-[[[3-methoxy-4-(5-oxazolyl)anilino]oxalyl]amino]benzyl] carbamate]
97 nM	COc1cc(NC(=O)C(=O)NC(C)(C)CN)ccc1-c1cnco1 [N-(2-Amino-1,1-dimethylethyl)-N′-[3-methoxy-4-(5-oxazolyl)kphenyl]oxalamide trifluoroacetate (1:1)]
37 nM	COc1cc(NC(=O)C(=O)NC(C)(C)C)ccc1-c1cnco1 [N-tert-Butyl-N′-[3-methoxy-4-(5-oxazolyl)phenyl]oxalamide]
36 nM	COc1cc(NC(=O)C(=O)Nc2cccc(CNC(=O)OC(C)(C)C)c2)ccc1-c1cnco1 [tert-Butyl [3-[[[3-methoxy-4-(5-oxazolyl)anilino]oxalyl]amino]benzyl]carbamate]
35 nM	COc1cc(NC(=O)C(=O)Nc2cccc(CC(=O)Nc3ccccc3)c2)ccc1-c1cnco1 [N-[3-Methoxy-4-(5-oxazolyl)phenyl]-N′-[3-[(phenylcarbamoyl)methyl]phenyl]oxalamide]
33 nM	COc1cc(NC(=O)C(=O)Nc2cccc(CNC(=O)OC(C)C)c2)ccc1-c1cnco1 [Isopropyl [3-[[[3-methoxy-4-(5-oxazolyl)anilino]oxalyl]amino]benzyl]carbamate]
30 nM	COc1cc(NC(=O)C(=O)NC(C)(C)c2ccccc2)ccc1-c1cnco1 [N-[3-Methoxy-4-(5-oxazolyl)phenyl]-N′-(1-methyl-1-phenylethyl)oxalamide]
13 nM	COc1cc(NC(=O)C(=O)Nc2cccc(CNC(=O)c3ccccc3)c2)ccc1-c1cnco1 [N-[3-(Benzamidomethyl)phenyl]-N′-[3-methoxy-4-(5-oxazolyl)phenyl]oxalamide]
10 nM	COc1cc(NC(=O)C(=O)NC(C)(C)Cc2ccc([N+](=O)[O-])cc2)ccc1-c1cnco1 [N-[3-Methoxy-4-(5-oxazolyl)phenyl]-N′-[1,1-dimethyl-2-(4-nitrophenyl)ethyl]oxalamide]
